Results reported in article PMC10672402 (Marine Drugs, 2023).

What was measured:
[1] = molecular target: T1, acetylcholinesterase (AChE) (Homo sapiens, UniProt P22303); test: acetylcholinesterase (AChE) inhibition, modified Ellman method; type: biochemical; settings: concentration of 50 μg/mL; read-out: inhibition rate against AChE
T1 construct: purchased Solarbio, Beijing, China

pancreatic lipase (PL) = molecular target: T2, pancreatic lipase (PL) (Homo sapiens, UniProt P16233); test: pancreatic lipase (PL) inhibitory assay; type: biochemical
T2 sequence (P16233 17-465): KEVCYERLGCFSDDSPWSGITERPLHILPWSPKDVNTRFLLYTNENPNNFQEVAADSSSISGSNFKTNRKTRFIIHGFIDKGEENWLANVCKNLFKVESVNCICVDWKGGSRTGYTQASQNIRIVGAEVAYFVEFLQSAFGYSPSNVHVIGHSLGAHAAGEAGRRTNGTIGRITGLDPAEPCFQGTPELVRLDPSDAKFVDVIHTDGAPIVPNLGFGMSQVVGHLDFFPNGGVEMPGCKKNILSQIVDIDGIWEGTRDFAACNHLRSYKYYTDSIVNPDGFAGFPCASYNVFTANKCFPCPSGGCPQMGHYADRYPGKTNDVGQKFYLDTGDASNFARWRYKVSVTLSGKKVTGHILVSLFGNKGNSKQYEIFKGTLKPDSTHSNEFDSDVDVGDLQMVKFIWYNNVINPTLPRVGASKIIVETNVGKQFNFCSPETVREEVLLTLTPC

T1 sequence (P22303 32-614, species assumed): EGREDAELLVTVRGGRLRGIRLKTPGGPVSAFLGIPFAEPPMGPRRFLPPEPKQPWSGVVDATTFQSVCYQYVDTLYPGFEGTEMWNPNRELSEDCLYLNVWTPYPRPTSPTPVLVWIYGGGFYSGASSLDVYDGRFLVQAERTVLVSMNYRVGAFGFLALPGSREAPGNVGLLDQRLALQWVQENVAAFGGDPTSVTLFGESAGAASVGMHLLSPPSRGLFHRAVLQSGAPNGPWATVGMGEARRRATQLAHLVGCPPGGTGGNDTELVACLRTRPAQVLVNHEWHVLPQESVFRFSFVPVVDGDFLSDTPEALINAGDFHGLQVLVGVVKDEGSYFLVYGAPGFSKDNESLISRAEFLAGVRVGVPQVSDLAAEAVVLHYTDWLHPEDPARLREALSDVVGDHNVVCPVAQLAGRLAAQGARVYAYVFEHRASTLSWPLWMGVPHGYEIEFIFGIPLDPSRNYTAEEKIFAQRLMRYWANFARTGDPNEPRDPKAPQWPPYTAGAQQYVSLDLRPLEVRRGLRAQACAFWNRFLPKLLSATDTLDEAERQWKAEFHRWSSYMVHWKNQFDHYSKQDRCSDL

| SMILES | inhibition at 50 µg/mL [1] | IC50 (pancreatic lipase (PL)) |
| --- | --- | --- |
| CCC(C)C1(O)OC(C)C2(OC)C(=O)C(C)=C(OC)C12 (centres unmarked) [Compound 1, asperpentenone B] | 20 to 26% | – |
| C/C=C/C=C/[C@@H]1Cc2c(CC(=O)O)c(O)cc(O)c2O1 [Compound 3, asperpentenone D] | – | 127 µM |
| CCC(C)C(=O)Cc1oc(=O)c(C)c(O)c1C (centres unmarked) [Compound 10, paecilpyrone A] | 20 to 26% | – |
| COC(=O)Cc1cccc(O)c1 [Compound 13, methyl-hydroxyphenylaceta] | 20 to 26% | – |
| COc1cc(/C=C/C(=O)O)ccc1O [Compound 14, trans-ferulic acid] | 20 to 26% | – |
